Patent publication US11214578B2, “Urea/carbamates FAAH MAGL or dual FAAH/MAGL inhibitors and uses thereof” (Northeastern University, priority 2014, dated 2022)
pIC50: −log10 of the molar value.

Legend:
Format in all cases: biochemical
[1] = molecular target: T1, ΔTM rat FAAH (Rattus norvegicus, UniProt P97612); assay: Fluorescent assay protocol for ΔTM rat FAAH (AAMCA substrate); conditions: 15 min preincubation, read-out: IC50 rFAAH
T1 construct: Preparation of Transmembrane Domain-Deleted Rat FAAH (ΔTM rFAAH); made in house; host or cells: E. coli
T1 sequence (P97612 30-579 limits assumed): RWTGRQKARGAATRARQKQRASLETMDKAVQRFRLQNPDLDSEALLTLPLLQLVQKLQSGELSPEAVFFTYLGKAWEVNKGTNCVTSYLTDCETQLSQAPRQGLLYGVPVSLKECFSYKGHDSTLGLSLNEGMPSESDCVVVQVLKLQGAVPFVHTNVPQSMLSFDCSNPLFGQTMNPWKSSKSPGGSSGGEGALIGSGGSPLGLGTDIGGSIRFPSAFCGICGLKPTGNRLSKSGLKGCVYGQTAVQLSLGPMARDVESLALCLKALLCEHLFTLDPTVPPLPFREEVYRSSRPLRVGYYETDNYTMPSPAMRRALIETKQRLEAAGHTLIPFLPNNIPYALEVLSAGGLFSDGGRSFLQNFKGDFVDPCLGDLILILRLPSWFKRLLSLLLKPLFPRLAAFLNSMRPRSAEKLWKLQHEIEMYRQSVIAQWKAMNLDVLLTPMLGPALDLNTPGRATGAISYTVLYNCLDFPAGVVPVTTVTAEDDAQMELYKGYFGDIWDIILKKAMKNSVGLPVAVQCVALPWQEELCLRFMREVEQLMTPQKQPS
Method: Procedure was followed as described for hMAGL, except that arachidonoyl-methyl coumarin amide (AAMCA) was used as fluorigenic substrate. […] For the screening assay, 3 concentrations (1 μM, 10 μM, and 100 μM) of test compounds, 15 μg of ΔTM rFAAH and assay buffer were pre-incubated for 15 min at 25° C. […] The fluorescence reading at the 3 hour time point (linear enzyme kinetics) was used to calculate percent inhibition based on control assays without inhibitor present. All FAAH assays were performed in triplicate for each inhibitor concentration, and IC50 values determined using Prizm software (GraphPad Software, Inc.).

[2] = molecular target: T2, Human FAAH (MBPΔTMhFAAH) (Homo sapiens, UniProt O00519); assay: Fluorescent assay protocol for hFAAH; conditions: human FAAH (MBP fusion, ΔTM), procedure as for rFAAH
T2 construct: made in house; host or cells: E. coli (pMALcE4 vector)
T2 sequence (O00519 30-579 limits assumed): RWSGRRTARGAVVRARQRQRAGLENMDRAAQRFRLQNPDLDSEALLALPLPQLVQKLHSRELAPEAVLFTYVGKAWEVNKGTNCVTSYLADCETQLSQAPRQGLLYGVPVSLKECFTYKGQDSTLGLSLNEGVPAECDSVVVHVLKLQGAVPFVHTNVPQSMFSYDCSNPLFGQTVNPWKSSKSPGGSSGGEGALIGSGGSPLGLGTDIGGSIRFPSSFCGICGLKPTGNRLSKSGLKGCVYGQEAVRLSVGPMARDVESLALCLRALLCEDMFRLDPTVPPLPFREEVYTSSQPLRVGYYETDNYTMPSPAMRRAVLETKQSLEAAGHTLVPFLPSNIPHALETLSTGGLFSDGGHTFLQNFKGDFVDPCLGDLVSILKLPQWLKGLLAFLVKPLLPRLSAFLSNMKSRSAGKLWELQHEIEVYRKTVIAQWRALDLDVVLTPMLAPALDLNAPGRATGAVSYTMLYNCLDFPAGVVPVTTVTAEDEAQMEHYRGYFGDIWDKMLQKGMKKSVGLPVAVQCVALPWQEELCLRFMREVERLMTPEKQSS
Method: Human FAAH without putative transmembrane domain following maltose binding protein was expressed in E. coli cells using pMALcE4 vector Alapafuja et al J. Med. Chem. (2012) 55: 10074-89.
Procedure was followed as described for hMAGL, except that arachidonoyl-methyl coumarin amide (AAMCA) was used as fluorigenic substrate. Compounds were diluted in 50:50 DMSO/assay buffer (50 mM HEPES, 1 mM EDTA, 0.1% BSA, pH 7.4) so as to have a final DMSO concentration below 8% in each reaction. For the screening assay, 3 concentrations (1 μM, 10 μM, and 100 μM) of test compounds, 15 μg of ΔTM rFAAH and assay buffer were pre-incubated for 15 min at 25° C. AAMCA (20 μM, 2×Km) was added prior to incubation at 25° C. and kinetic fluorescence reading every 20 minutes (λex=360/λem=460) for 4 hours on a BioTek Synergy HT Microplate Reader (BioTek Instruments, Winooski, Vt.). The fluorescence reading at the 3 hour time point (linear enzyme kinetics) was used to calculate percent inhibition based on control assays without inhibitor present. All FAAH assays were performed in triplicate for each inhibitor concentration, and IC50 values determined using Prizm software (GraphPad Software, Inc.).
Procedure was followed as described for rFAAH.

[3] = molecular target: T3, Rat MAGL (rMAGL) (Rattus norvegicus, UniProt Q8R431); assay: Fluorescent assay protocol for rMAGL; conditions: recombinant rat MAGL, procedure as for hMAGL; read-out: IC50 rMAGL
T3 construct: made in house; host or cells: E. coli
T3 sequence (Q8R431 1-303): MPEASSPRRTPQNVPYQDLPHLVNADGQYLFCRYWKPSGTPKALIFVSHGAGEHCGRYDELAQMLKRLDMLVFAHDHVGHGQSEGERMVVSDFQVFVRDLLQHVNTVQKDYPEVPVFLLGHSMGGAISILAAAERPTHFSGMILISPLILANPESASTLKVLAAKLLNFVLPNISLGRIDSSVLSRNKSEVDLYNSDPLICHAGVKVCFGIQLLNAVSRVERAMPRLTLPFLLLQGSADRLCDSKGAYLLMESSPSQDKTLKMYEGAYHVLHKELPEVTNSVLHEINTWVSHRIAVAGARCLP
Method: (§1) This medium throughput assay involved a 96-well plate format in which hMAGL activity was monitored by the hydrolysis of the substrate 7-hydroxy-6-methoxy-4-methylcoumarin ester (AHMMCE) to form the fluorescent product, coumarin. […] Upon the addition of AHMMCE, the reaction was incubated at 25° C. for 120 min; fluorescence readings were taken every 15 min at 360 nm/460 nm (λexcitation/λemission) using a Synergy HT Plate Reader (Bio-Tek, Winooski, Vt.). […] External standards were used to convert relative fluorescence units to the amount of 4-methylcoumarin formed. All MAGL assays were performed in triplicate for each inhibitor concentration, and IC50 values were calculated using Prizm software (GraphPad Software, Inc., San Diego, Calif.).
Procedure was followed as described for hMAGL.

[4] = molecular target: T4, Human MAGL (hMAGL) (Homo sapiens, UniProt Q99685); assay: Fluorescent assay protocol for hMAGL (AHMMCE substrate); conditions: recombinant human MAGL, AHMMCE substrate, 15 min preincubation; read-out: IC50 hMAGL
T4 construct: hexahistidine; made in house; host or cells: E. coli
T4 sequence (Q99685 1-303): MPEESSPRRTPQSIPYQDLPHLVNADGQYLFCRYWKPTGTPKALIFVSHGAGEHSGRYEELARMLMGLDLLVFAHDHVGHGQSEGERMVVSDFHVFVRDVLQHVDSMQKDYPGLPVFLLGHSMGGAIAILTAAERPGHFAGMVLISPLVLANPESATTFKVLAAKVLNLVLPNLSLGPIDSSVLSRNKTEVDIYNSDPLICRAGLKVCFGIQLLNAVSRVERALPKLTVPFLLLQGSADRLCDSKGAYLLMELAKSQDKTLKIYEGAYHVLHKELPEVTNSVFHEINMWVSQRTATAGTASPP
Method: as §1

| Compound | pIC50 [1] | pIC50 [2] | pIC50 [3] | pIC50 [4] |
| --- | --- | --- | --- | --- |
| 6-Chloropyridin-2-yl 4-(benzhydryl)piperidine-1-carboxylate [Example 51] | 7.00 to 8.00 | 7.00 to 8.00 | < 6.00 | < 6.00 |
| C[C@@H]1CN(C(=O)Nc2cccc(-c3cccc(C(N)=O)c3)c2)CCN1Cc1ccc2ccccc2n1 [Example 2, (R)—N-(3′-carbamoyl-[1,1′-biphenyl]-3-yl)-3-methyl-4-(quinolin-2-ylmethyl)piperazine-1-carboxamide] | 6.00 to 6.96 | < 6.00 | < 6.00 | < 6.00 |
| C[C@H]1CN(Cc2cccc(Oc3ccccc3)c2)CCN1C(=O)Nc1cccc(-c2cccc(C(N)=O)c2)c1 [Example 4, (S)—N-(3′-carbamoyl-[1,1′-biphenyl]-3-yl)-2-methyl-4-(3-phenoxybenzyl)piperazine-1-carboxamide] | 7.00 to 8.00 | 7.00 to 8.00 | < 6.00 | < 6.00 |
| C[C@H]1CN(Cc2cccc(Oc3ccccc3)c2)CCN1C(=O)Nc1cncc(-c2cccc(C#N)c2)c1 [Example 5, (S)—N-(5-(3-cyanophenyl)pyridin-3-yl)-2-methyl-4-(3-phenoxybenzyl)piperazine-1-carboxamide] | < 6.00 | < 6.00 | < 6.00 | < 6.00 |
| NC(=O)c1cccc(-c2cccc(NC(=O)N3CCN(Cc4cnc5ccccc5c4)CC3)c2)c1 [Example 6, N-(3′-carbamoyl-[1,1′-biphenyl]-3-yl)-4-(quinolin-3-ylmethyl)piperazine-1-carboxamide] | 7.00 to 8.00 | 7.00 to 8.00 | 6.00 to 6.96 | 6.00 to 6.96 |
| NC(=O)c1cccc(-c2cccc(NC(=O)N3CCN(C4c5ccccc5-c5ccccc54)CC3)c2)c1 [Example 8, N-(3′-carbamoyl-[1,1′-biphenyl]-3-yl)-4-(9H-fluoren-9-yl)piperazine-1-carboxamide] | 7.00 to 8.00 | 7.00 to 8.00 | < 6.00 | < 6.00 |
| NC(=O)c1cccc(-c2cccc(NC(=O)N3CCN(c4ccccn4)CC3)c2)c1 [Example 9, N-(3′-carbamoyl-[1,1′-biphenyl]-3-yl)-4-(pyridin-2-yl)piperazine-1-carboxamide] | 7.00 to 8.00 | 7.00 to 8.00 | < 6.00 | < 6.00 |
| NC(=O)c1cccc(-c2cccc(NC(=O)N3CCN(Cc4ccc(-c5ccccc5)cc4)CC3)c2)c1 [Example 10, 4-([1,1′-biphenyl]-4-ylmethyl)-N-(3′-carbamoyl-[1,1′-biphenyl]-3-yl)piperazine-1-carboxamide] | 7.00 to 8.00 | 7.00 to 8.00 | < 6.00 | < 6.00 |
| NC(=O)c1cccc(-c2cccc(NC(=O)N3CCN(c4ccccc4)CC3)c2)c1 [Example 11, N-(3′-carbamoyl-[1,1′-biphenyl]-3-yl)-4-phenylpiperazine-1-carboxamide] | 7.00 to 8.00 | 7.00 to 8.00 | < 6.00 | < 6.00 |
| NC(=O)c1cccc(-c2cccc(NC(=O)N3CCN(Cc4ccc5ccccc5n4)CC3)c2)c1 [Example 12, N-(3′-carbamoyl-[1,1′-biphenyl]-3-yl)-4-(quinolin-2-ylmethyl)piperazine-1-carboxamide] | 7.00 to 8.00 | 7.00 to 8.00 | < 6.00 | < 6.00 |
| CC(C)C(c1ccccc1)N1CCN(C(=O)Oc2cccc(C#N)c2)CC1 (stereo not drawn) [Example 35, 3-Cyanophenyl 4-(2-methyl-1-phenylpropyl)piperazine-1-carboxylate] | < 6.00 | < 6.00 |  | < 6.00 |
| N#Cc1cccc(OC(=O)N2CCN(C(c3ccccc3)C3CCCC3)CC2)c1 (stereo not drawn) [Example 37, 3-cyanophenyl 4-(cyclopentyl(phenyl)methyl)piperazine-1-carboxylate] | 7.00 to 8.00 | 7.00 to 8.00 |  |  |
| N#Cc1cccc(OC(=O)N2CCN(C(c3ccc(F)cc3)c3ccc(F)cc3)CC2)c1 [Example 40, 3-cyanophenyl 4-(bis(4-fluorophenyl)methyl)piperazine-1-carboxylate] | < 6.00 | < 6.00 |  |  |
| N#Cc1cccc(OC(=O)N2CCN(C3c4ccccc4-c4ccccc43)CC2)c1 [Example 41, 3-cyanophenyl 4-(9H-fluoren-9-yl)piperazine-1-carboxylate] | 6.00 to 6.96 | 6.00 to 6.96 |  |  |
| N#Cc1cccc(OC(=O)N2CCN(C(c3ccccc3)c3ccccc3)CC2)c1 [Example 44, 3-Cyanophenyl 4-benzhydrylpiperazine-1-carboxylate] | 7.00 to 8.00 | 7.00 to 8.00 |  |  |
| N#Cc1ccc(F)c(OC(=O)N2CCC(C(c3ccccc3)c3ccccc3)CC2)c1 [Example 49, 5-cyano-2-fluorophenyl 4-benzhydrylpiperidine-1-carboxylate] | < 6.00 | < 6.00 |  |  |
| N#Cc1cc(O)cc(OC(=O)N2CCC(C(c3ccccc3)c3ccccc3)CC2)c1 [Example 50, 3-cyano-5-hydroxyphenyl 4-benzhydrylpiperidine-1-carboxylate] | < 6.00 | < 6.00 |  |  |
| N#Cc1cccc(OC(=O)N2CCC(OC(c3ccccc3)c3ccccc3)CC2)c1 [Example 58, 3-cyanophenyl 4-(benzhydryloxy)piperidine-1-carboxylate] | < 6.00 | < 6.00 |  |  |
